Assay results: patent US20140323300A1, “HERBICIDAL COMPOUNDS” (SYNGENTA LIMITED, priority 2011, published 2014)

What was measured:
Type in all cases: in vivo
[1] = system: Alopecurus myosuroides (ALOMY); experiment: Post-emergence glasshouse herbicide test; conditions: post-emergence (sprayed after 8 days cultivation), 1000 g/h, evaluated after 13 days, five point scale
Description: (§1) Seeds of a variety of test species are sown in standard soil in pots (Alopecurus myosuroides (ALOMY), Setaria faberi (SETFA), Echinochloa crus-galli (ECHCG), Solanum nigrum (SOLNI), Amaranthus retoflexus (AMARE), Ipomoea hederacea (IPOHE)). After cultivation for one day (pre-emergence) or after 8 days cultivation (post-emergence) under controlled conditions in a glasshouse (at 24/16° C., day/night; 14 hours light; 65% humidity), the plants are sprayed with an aqueous spray solution derived from the formulation of the technical active ingredient in acetone/water (50:50) solution containing 0.5% Tween 20 (polyoxyethelyene sorbitan monolaurate, CAS RN 9005-64-5). Compounds are applied at 1000 g/h. The test plants are then grown in a glasshouse under controlled conditions in a glasshouse (at 24/16° C., day/night; 14 hours light; 65% humidity) and watered twice daily. After 13 days for pre and post-emergence, the test is evaluated for the percentage damage caused to the plant. The biological activities are shown in the following table on a five point scale (5=80-100%; 4=60-79%; 3=40-59%; 2=20-39%; 1=0-19%).

[2] = system: Amaranthus retoflexus (AMARE); experiment: Post-emergence glasshouse herbicide test; conditions: post-emergence (sprayed after 8 days cultivation), 1000 g/h, evaluated after 13 days, five point scale
Description: as §1

[3] = system: Echinochloa crus-galli (ECHCG); experiment: Post-emergence glasshouse herbicide test; conditions: post-emergence (sprayed after 8 days cultivation), 1000 g/h, evaluated after 13 days, five point scale
Description: as §1

[4] = system: Ipomoea hederacea (IPOHE); experiment: Post-emergence glasshouse herbicide test; conditions: post-emergence (sprayed after 8 days cultivation), 1000 g/h, evaluated after 13 days, five point scale
Description: as §1

Setaria faberi (SETFA) [5] = experiment: Post-emergence glasshouse herbicide test; conditions: post-emergence (sprayed after 8 days cultivation), 1000 g/h, evaluated after 13 days, five point scale
Description: as §1

Solanum nigrum (SOLNI) [6] = experiment: Post-emergence glasshouse herbicide test; conditions: post-emergence (sprayed after 8 days cultivation), 1000 g/h, evaluated after 13 days, five point scale
Description: as §1

[7] = system: Alopecurus myosuroides (ALOMY); experiment: Pre-emergence glasshouse herbicide test; conditions: pre-emergence (sprayed after one day cultivation), 1000 g/h, evaluated after 13 days, five point scale
Description: as §1

[8] = system: Amaranthus retoflexus (AMARE); experiment: Pre-emergence glasshouse herbicide test; conditions: pre-emergence (sprayed after one day cultivation), 1000 g/h, evaluated after 13 days, five point scale
Description: as §1

[9] = system: Echinochloa crus-galli (ECHCG); experiment: Pre-emergence glasshouse herbicide test; conditions: pre-emergence (sprayed after one day cultivation), 1000 g/h, evaluated after 13 days, five point scale
Description: as §1

[10] = system: Ipomoea hederacea (IPOHE); experiment: Pre-emergence glasshouse herbicide test; conditions: pre-emergence (sprayed after one day cultivation), 1000 g/h, evaluated after 13 days, five point scale
Description: as §1

Setaria faberi (SETFA) [11] = experiment: Pre-emergence glasshouse herbicide test; conditions: pre-emergence (sprayed after one day cultivation), 1000 g/h, evaluated after 13 days, five point scale
Description: as §1

Solanum nigrum (SOLNI) [12] = experiment: Pre-emergence glasshouse herbicide test; conditions: pre-emergence (sprayed after one day cultivation), 1000 g/h, evaluated after 13 days, five point scale
Description: as §1

Structure (SMILES)	percentage damage caused to the plant, POST Application ALOMY [1]	percentage damage caused to the plant, POST Application AMARE [2]	percentage damage caused to the plant, POST Application ECHCG [3]	percentage damage caused to the plant, POST Application IPOHE [4]	percentage damage caused to the plant, POST Application SETFA (Setaria faberi (SETFA) [5])	percentage damage caused to the plant, POST Application SOLNI (Solanum nigrum (SOLNI) [6])	percentage damage caused to the plant, PRE Application ALOMY [7]	percentage damage caused to the plant, PRE Application AMARE [8]	percentage damage caused to the plant, PRE Application ECHCG [9]	percentage damage caused to the plant, PRE Application IPOHE [10]	percentage damage caused to the plant, PRE Application SETFA (Setaria faberi (SETFA) [11])	percentage damage caused to the plant, PRE Application SOLNI (Solanum nigrum (SOLNI) [12])
O=c1c(O)c(Cl)cnn1-c1ccc(Cl)cc1Cl [Compound 1.001]	1 (1=0-19%)	5 (5=80-100%)	5 (5=80-100%)	5 (5=80-100%)	5 (5=80-100%)	5 (5=80-100%)	2 (2=20-39%)	4 (4=60-79%)	4 (4=60-79%)	1 (1=0-19%)	4 (4=60-79%)	3 (3=40-59%)
O=c1c(O)c(Cl)cnn1-c1ccc(C(F)(F)F)cc1Cl [Compound 1.002, 5-chloro-2-[2-chloro-4-(trifluoromethyl)phenyl]-4-hydroxy-pyridazin-3-one]	1 (1=0-19%)	5 (5=80-100%)	5 (5=80-100%)	5 (5=80-100%)	5 (5=80-100%)	5 (5=80-100%)	2 (2=20-39%)	5 (5=80-100%)	5 (5=80-100%)	4 (4=60-79%)	4 (4=60-79%)	5 (5=80-100%)
CS(=O)(=O)c1cc(C(F)(F)F)ccc1-n1ncc(Cl)c(O)c1=O [Compound 1.003]	5 (5=80-100%)	5 (5=80-100%)	5 (5=80-100%)	5 (5=80-100%)	5 (5=80-100%)	5 (5=80-100%)	5 (5=80-100%)	5 (5=80-100%)	5 (5=80-100%)	5 (5=80-100%)	5 (5=80-100%)	5 (5=80-100%)
Cc1c(-n2ncc(Cl)c(O)c2=O)ccc(S(C)(=O)=O)c1C1=NOCC1 [Compound 1.004]	5 (5=80-100%)	5 (5=80-100%)	5 (5=80-100%)	5 (5=80-100%)	5 (5=80-100%)	5 (5=80-100%)	5 (5=80-100%)	5 (5=80-100%)	5 (5=80-100%)	5 (5=80-100%)	5 (5=80-100%)	5 (5=80-100%)
CCc1cnn(-c2ccc(S(C)(=O)=O)c(C3=NOCC3)c2C)c(=O)c1O [Compound 1.005]	5 (5=80-100%)	5 (5=80-100%)	5 (5=80-100%)	5 (5=80-100%)	5 (5=80-100%)	5 (5=80-100%)	4 (4=60-79%)	5 (5=80-100%)	4 (4=60-79%)	4 (4=60-79%)	2 (2=20-39%)	5 (5=80-100%)
C=Cc1cnn(-c2ccc(S(C)(=O)=O)c(C3=NOCC3)c2C)c(=O)c1O [Compound 1.006]	4 (4=60-79%)	5 (5=80-100%)	5 (5=80-100%)	5 (5=80-100%)	5 (5=80-100%)	5 (5=80-100%)	1 (1=0-19%)	5 (5=80-100%)	5 (5=80-100%)	4 (4=60-79%)	4 (4=60-79%)	5 (5=80-100%)
C=C(C)c1cnn(-c2ccc(S(C)(=O)=O)c(C3=NOCC3)c2C)c(=O)c1O [Compound 1.007]	5 (5=80-100%)	5 (5=80-100%)	5 (5=80-100%)	5 (5=80-100%)	5 (5=80-100%)	5 (5=80-100%)	3 (3=40-59%)	5 (5=80-100%)	5 (5=80-100%)	5 (5=80-100%)	3 (3=40-59%)	4 (4=60-79%)
Cc1c(-n2nccc(O)c2=O)ccc(S(C)(=O)=O)c1C1=NOCC1 [Compound 1.008]	5 (5=80-100%)	5 (5=80-100%)	5 (5=80-100%)	5 (5=80-100%)	5 (5=80-100%)	5 (5=80-100%)	2 (2=20-39%)	5 (5=80-100%)	5 (5=80-100%)	5 (5=80-100%)	5 (5=80-100%)	5 (5=80-100%)
Cc1c(-n2ncc(C#N)c(O)c2=O)ccc(S(C)(=O)=O)c1C1=NOCC1 [Compound 1.009]	1 (1=0-19%)	5 (5=80-100%)	5 (5=80-100%)	5 (5=80-100%)	5 (5=80-100%)	5 (5=80-100%)	1 (1=0-19%)	5 (5=80-100%)	5 (5=80-100%)	4 (4=60-79%)	4 (4=60-79%)	4 (4=60-79%)
